According to patent US20230257365A1, “SMALL MOLECULE ANDROGEN RECEPTOR PROTEIN DEGRADERS” (THE REGENTS OF THE UNIVERSITY OF MICHIGAN, priority 2020, published 2023):

Target: T1, AR protein (Homo sapiens, UniProt P10275)
T1 construct: endogenous in cells; host or cells: VCaP
T1 sequence (P10275 1-920): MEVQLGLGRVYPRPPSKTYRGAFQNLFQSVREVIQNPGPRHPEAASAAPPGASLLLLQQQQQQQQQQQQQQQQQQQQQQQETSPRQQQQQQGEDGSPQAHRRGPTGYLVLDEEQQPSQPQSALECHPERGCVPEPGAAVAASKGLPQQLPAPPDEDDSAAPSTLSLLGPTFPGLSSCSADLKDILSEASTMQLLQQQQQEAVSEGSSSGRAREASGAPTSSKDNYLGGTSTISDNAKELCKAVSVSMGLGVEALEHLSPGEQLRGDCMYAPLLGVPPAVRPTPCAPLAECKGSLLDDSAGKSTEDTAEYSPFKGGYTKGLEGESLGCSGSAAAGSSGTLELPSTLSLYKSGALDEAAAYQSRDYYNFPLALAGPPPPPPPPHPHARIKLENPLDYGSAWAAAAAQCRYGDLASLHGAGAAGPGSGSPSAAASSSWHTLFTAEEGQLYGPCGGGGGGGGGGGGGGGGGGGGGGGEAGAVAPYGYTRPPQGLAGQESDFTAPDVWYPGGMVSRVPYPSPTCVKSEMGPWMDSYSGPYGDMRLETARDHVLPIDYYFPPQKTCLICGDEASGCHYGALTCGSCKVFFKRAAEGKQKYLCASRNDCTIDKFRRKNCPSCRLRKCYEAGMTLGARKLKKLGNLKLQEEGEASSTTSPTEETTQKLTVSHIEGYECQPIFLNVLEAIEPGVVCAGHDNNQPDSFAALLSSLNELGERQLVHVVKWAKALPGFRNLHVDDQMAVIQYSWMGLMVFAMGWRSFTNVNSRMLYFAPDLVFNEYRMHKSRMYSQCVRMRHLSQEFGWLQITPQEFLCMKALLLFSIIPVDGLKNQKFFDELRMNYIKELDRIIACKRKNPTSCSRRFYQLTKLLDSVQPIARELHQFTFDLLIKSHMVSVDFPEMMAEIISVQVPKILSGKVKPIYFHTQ
Experiment: AR protein degradation by western blotting in VCaP cells
Format: cell-based
Description: The appropriate cell line, e.g., prostate cancer LNCaP, Vcap, or MDA-MB-453, cell line, was treated with Compounds of the Disclosure. The treated cells were lysed with RIPA buffer. The AR level in the cell lysates was examined by western blotting and a specific AR antibody (ab 194196, Abeam, Cambridge, Mass. 02139) with concentration of 1:20,000. GAPDH was used as a loading control.
Bands were quantified with ImageJ software. The relative numbers of each band obtained from normalization with its corresponding GAPDH level were compared with Prism 8 software. The DC50 values were produced from Prism 8, and the DC90 values were calculated with an equation=Bottom+(Top−Bottom)/(1+10^((Log EC50−X)*HillSlope) based on DC50 and Hillslope values.
The amount of AR protein degradation in LNCap, VCap, and MDA-MB-453 cells caused representative Compounds of the Disclosure at the concentrations indicated is presented in Table 4.

| % AR protein degradation in VCaP Cells (0.001 μM) [%] | % AR protein degradation in VCaP Cells (0.01 μM) [%] | % AR protein degradation in VCaP Cells (0.1 μM) [%] | % AR protein degradation in VCaP Cells (1 μM) [%] | SMILES |
| --- | --- | --- | --- | --- |
| 3 | −5 | −5 | 4 | N#Cc1ccc(OC2CCN(C(=O)c3ccc(N4CCC(N5CCN(c6ccc7c(c6)C(=O)N(C6CCC(=O)NC6=O)C7=O)CC5)CC4)cc3)CC2)cc1Cl (stereo not drawn) [compound 336, 2-chloro-4-((1-(4-(4-(4-(2-(2,6-dioxopiperidin-3-yl)-1,3-dioxoisoindolin-5-yl)piperazin-1-yl)piperidin-1-yl)benzoyl)piperidin-4-yl)oxy)benzonitrile] |
| 18 | 12 | 9 | 29 | N#Cc1ccc(OC2CCCN(C(=O)c3ccc(N4CCC(N5CCN(c6ccc7c(c6)C(=O)N(C6CCC(=O)NC6=O)C7=O)CC5)CC4)cc3)CC2)cc1Cl (stereo not drawn) [compound 337, 2-chloro-4-((1-(4-(4-(4-(2-(2,6-dioxopiperidin-3-yl)-1,3-dioxoisoindolin-5-yl)piperazin-1-yl)piperidin-1-yl)benzoyl)azepan-4-yl)oxy)benzonitrile] |
| −1 | −12 | 8 | 93 | N#Cc1ccc(-c2ccn(Cc3ccc(C(=O)N4CCN(C5CCN(c6ccc7c(c6)C(=O)N(C6CCC(=O)NC6=O)C7=O)CC5)CC4)cc3)n2)cc1Cl (stereo not drawn) [compound 338, 2-chloro-4-(1-(4-(4-(1-(2-(2,6-dioxopiperidin-3-yl)-1,3-dioxoisoindolin-5-yl)piperidin-4-yl)piperazine-1-carbonyl)benzyl)-1H-pyrazol-3-yl)benzonitrile] |
